pKi: −log10 of the molar value.
Experiments:
Coagulation factor X = Coagulation factor X (Homo sapiens, UniProt P00742); experiment: Compound was tested for inhibitory activity against human Coagulation factor X
Prothrombin = Prothrombin (Homo sapiens, UniProt P00734); experiment: Compound was tested for inhibitory activity against human thrombin
Serine protease 1 = biological target: T1, Serine protease 1 (Bos taurus, UniProt P00760); experiment: Compound was tested for inhibitory activity against bovine trypsin
T1 sequence (P00760 whole entry): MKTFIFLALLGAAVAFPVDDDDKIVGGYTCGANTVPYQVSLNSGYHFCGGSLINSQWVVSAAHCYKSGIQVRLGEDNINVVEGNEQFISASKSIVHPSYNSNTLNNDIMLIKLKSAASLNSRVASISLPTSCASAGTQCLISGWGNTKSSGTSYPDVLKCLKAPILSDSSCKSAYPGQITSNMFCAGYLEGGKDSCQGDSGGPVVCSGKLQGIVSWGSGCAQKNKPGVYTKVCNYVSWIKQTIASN

Chain of Coagulation factor X (P00742 41-179 limits assumed): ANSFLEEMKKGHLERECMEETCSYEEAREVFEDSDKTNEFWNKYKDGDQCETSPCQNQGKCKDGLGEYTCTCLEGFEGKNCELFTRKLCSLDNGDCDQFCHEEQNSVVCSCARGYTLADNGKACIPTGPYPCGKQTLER
Chain of Coagulation factor X (P00742 235-488 limits assumed): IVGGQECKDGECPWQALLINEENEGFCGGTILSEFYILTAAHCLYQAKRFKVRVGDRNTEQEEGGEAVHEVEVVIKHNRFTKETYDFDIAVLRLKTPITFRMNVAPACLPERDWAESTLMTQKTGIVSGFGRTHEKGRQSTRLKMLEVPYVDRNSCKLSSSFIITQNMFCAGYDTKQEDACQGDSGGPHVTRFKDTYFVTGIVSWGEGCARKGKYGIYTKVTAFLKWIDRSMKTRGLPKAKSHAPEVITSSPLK

pKi (Coagulation factor X)	pKi (Prothrombin)	pKi (Serine protease 1)	SMILES
9.38	6.15	6.82	Cc1nc2c(Oc3cc(C(=N)N)ccc3O)nc(Oc3cccc(C(=O)N(C)C)c3)nc2n1Cc1ccccc1
7.09	< 5.30	5.66	CN(C)C(=O)c1cccc(Oc2nc(Oc3cc(C(=N)N)ccc3O)nc3c2NC(=O)CN3)c1
–	6.37	7.52	N=C(N)c1ccc(/C=C2/CCCC/C(=C/c3ccc(C(=N)N)cc3)C2=O)cc1
–	< 5.30	–	Cc1c(F)c(Oc2cccc(C(=N)N)c2)nc(Oc2cccc(C(=O)N(C)C)c2)c1F
7.72	6.00	6.49	CN(C)C(=O)c1cccc(Oc2nc3c(c(Oc4cc(C(=N)N)ccc4O)n2)NC(=O)CN3)c1
6.97	< 5.30	< 5.30	CN(C)C(=O)c1cccc(Oc2nc(Oc3cc(C(=N)N)ccc3O)nc3c2NC(=O)CO3)c1
8.00	5.89	6.12	Cc1nc2c(Oc3cccc(C(=O)N(C)C)c3)nc(Oc3cc(C(=N)N)ccc3O)nc2n1Cc1ccccc1

— ChEMBL document CHEMBL1130936, “Design, synthesis, and biological activity of novel purine and bicyclic pyrimidine factor Xa inhibitors” (Bioorg Med Chem Lett, 1998)
